# According to patent publication US11129782B2, “Derivatives of PPD useful for coloring hair and skin” (National University of Singapore, priority 2017, dated 2021):
# Experiments:
# [1] = tested on: HaCaT cells; assay: In vitro cell cytotoxicity (MTT) assay on HaCaT cells; type: cell-based, human; settings: 72 h incubation, MTT
# Description: HaCaT (human, adult, low calcium, high temperature, human adult skin keratinocytes) cells were obtained from the IMB (Institute of Medical Biology) Skin Cell Bank. Fetal bovine serum (FBS), Dulbecco's minimum essential medium (DMEM) and trypsin EDTA solution were purchased from GE healthcare life sciences, Utah. Penicillin/streptomycin, dimethyl sulfoxide (DMSO), and phosphate buffered saline (PBS) were from Fisher Scientific (Singapore). Para-phenylenediamine (PPD) was purchased from Sigma Aldrich (Singapore). PPD analogues such as Dimer, trimer, ethyl hexyl para-phenylenediamine (EHPPD), hexyl para-phenylenediamine (HPPD), Bandrowski base (BB) were synthesized in house.
# Cell viability was essentially determined using the MTT assay as described in the literature. The HaCaT cells were grown in DMEM with 10% FBS and 1% penicillin/streptomycin. The cells in T-75 cm^2 culture flasks were incubated with 5% CO2 at 37° C. in a humidified incubator. The HaCaT cells were grown to expected confluency and then they were harvested by trypsinizing the cell with 0.25% trypsin/EDTA and incubated at 37° C. for 5 min to obtain the complete cell detachment. After the incubation, cell pellets were resuspended, and washed twice with 1×PBS. The cell suspension in 1×PBS was counted and adjusted to 1×10^5/mL. A HaCaT keratinocyte suspension (100 μL in 1×PBS) with a cell concentration of 1×10^5 cells/mL) and a test solution (100 μL in milli-Q water) were combined in each well of two 96-well plates. Test solutions with a desired concentration were prepared by serial dilutions of the stock solutions with 1×PBS.
# For the cytotoxicity experiment, cells were seeded at a density of 5×10^3 in 200 ul of medium into each well of 96-well plates. Cells were seeded as three sets of four replicates for each concentration. After 24 h of incubation, the cells were washed with PBS and cultured for 72 h with 200 ul of 10% FBS containing DMEM medium, together with the different concentrations of the test compounds ranging from 500 μM to 1.9 μM for PPD and analogues 1-5 and standard in a serial dilution. Then the medium was removed and 100 μl of MTT [3-(4,5-dimethylthiazol-2yl)-2,5-diphenyl-2H-tetrazolium bromide](1 mg/ml) (Alfa Aesar, Singapore) in PBS was added. At the end of 4 h incubation, the plates were removed from the incubator and plates were shaken for 5 min. The absorbance at 570 nm was determined using Bio-Tek plate reader. The cell viability rates were calculated from absorbance readings and represented as percentages of control value (untreated cells).
# [2] = tested on: cysteine and lysine peptides; assay: Direct Peptide Reactivity Assay, mean of cysteine and lysine depletion (FIG. 12); settings: for Sensitizing potential predicted from mean peptide depletion: cysteine 1:10 / lysine 1:50 model
# Experimental: Direct reactivity of test chemical to lysine-based synthetic peptide was determined in reactions containing 100 mM ammonium acetate buffer (pH 10.2). The final concentration of lysine peptide was 20 μM in a final reaction volume of 0.3 ml. Direct reactivity of test chemicals to cysteine-based synthetic peptide was determined in 100 mM Sodium Phosphate buffer of pH 7.5.
# For the DPRA, incubation mixtures were prepared using each peptide to test compound ratios of both 1:10 for cysteine peptide and 1:50 for lysine peptide, according to Table 19. […] Sample reactions were initiated by adding 3 μl of a test chemical stock solution for cysteine and 15 μl stock solution for lysine peptide. These mixtures were then placed in a temperature-controlled shaking incubator at 25° C.
# At each time point (20 mins/24 hours), the incubation mixtures were quenched with 75 μL of 95% ACN/H2O, and mildly vortexed (600 rpm, 3 seconds). For Lysine DPRA experiment, 10 μl of aliquot was diluted with 2% ACN/H2O, vortexed and stored at −80° C. until analysis by LC-MS/MS. For cysteine DPRA, an additional step was performed. 10 μl of cysteine reaction mixture, at time points 20 min and 24 h were diluted in 180 μl of 2% ACN/H2O. To which, a 10 μl aliquot of a 16 mM dithiothreitol solution (prepared in water) was then added, and samples were heated in a 45° C. oven for 30 min, then allowed to cool to room temperature prior to analysis. The peptide depletion (PD) percentage was obtained using this equation.
# [3] = Skin permeation in vertical Franz diffusion cells; type: in vitro ADME, porcine; settings: 8 h; for Skin permeation (in words): porcine skin; for recovery at 8 h, 1 % w/v: pig, read-out: % Parent compound Recovery (mean); for Penetration profile PPD vs derivatives (times less than PPD): ratio of PPD penetration to that of the compound
# Experimental: Porcine ears were generously provided by the NUS Department of Surgery. The ears were frozen at −80° C. until use (up to 3 months) and thawed at room temperature on the day preceding the experiment. Prior to the experiment, the skin was separated from the cartilage and dermatomed to a thickness of ˜1.0 mm using an Acculan™ 3Ti dermatome (Aesculap, Inc., B. Braun, USA).
# The PPD and derivatives were dissolved in deionized water at 1% w/v. The PPD and PPD derivatives 1-5 solutions were purged with argon gas to minimize oxidation of the donor solution.
# Skin penetration studies were carried out using vertical Franz diffusion cells (PermeGear, USA) immersed in a 37° C. water bath. The donor and receptor volumes were 900 µL and 5 mL, respectively; the mean surface area of penetration was 0.64 cm^2. Upon insertion of the skin pieces into the Franz cells, the skin was equilibrated for 45 min with PBS in the receptor compartment. After equilibration, the skin's trans-epidermal water loss (TEWL) was measured using an Aquaflux AF300 (Biox, UK) to assess the integrity of the skin's stratum corneum barrier. The donor solution, consisting of PPD or derivative 1-5 (n=3 Franz cells each), was then added to the donor compartment and the penetration experiments were conducted for 8 h. The receptor solutions were continuously stirred with magnetic stirrers. At fixed time points, aliquots of 200 μL were taken from the receptor solution of each cell and the receptor solution topped up with 200 μL of fresh PBS. At the end of the experiment, the donor and receptor solutions were removed and the cells dismantled. For the purpose of mass balance on the PPD, PPD derivatives 1-5 the skin pieces and swabs of their outer surfaces were collected and stored in acetonitrile for PPD or derivative 1-5 extraction. The donor solution as well as PBS used to thoroughly wash each part of the Franz cells were also collected.
# PPD, PPD derivatives 1-5 and metabolite concentrations in all permeation and mass balance samples were measured by LCMS. PPD steady state fluxes and permeability coefficients were calculated by fitting the solution to Fick's second law of diffusion at the steady state to the linear part of each experimental cumulative amount curve.
# The validated method LCMS was applied to quantify PPD, PPD derivative 1-5 and metabolites from skin permeation study samples. FIGS. 3 and 4 show LCMS spectra for the identification of PPD and PPD derivatives 1 and 2 and metabolites from skin permeation study experiment.
# [4] = tested on: cysteine peptide (Ac-RFAACAA-COOH); assay: Direct Peptide Reactivity Assay, cysteine peptide; settings: for % of Cysteine depletion, Avg / % of Cysteine depletion, Rep 2 / % of Cysteine depletion, Rep 3 / Reactivity Class: 1:10; for % of Cysteine depletion, Rep 1: peptide 0.02 mM : test chemical 0.2 mM (1:10); for Reactivity Class: cysteine
# Experimental: For cysteine DPRA, an additional step was performed.
# (§1) The mass spectrometric analysis was performed by use of a AB SCIEX QTRAP 5500 tandem mass spectrometry (MS/MS) system (AB SCIEX, Framingham, Mass., USA) operating in triple quadrupole positive mode (ESI+) equipped with an AB Sciex Turbo Ion Spray interface. Acquisition and analysis of data were performed with Analyst software ver. 1.6.2 (Applied Biosystems).
# [5] = tested on: lysine peptide (Ac-RFAAKAA-COOH); assay: Direct Peptide Reactivity Assay, lysine peptide; settings: for % of Lysine depletion, Avg / % of Lysine depletion, Rep 2 / % of Lysine depletion, Rep 3 / Reactivity Class: 1:50; for % of Lysine depletion, Rep 1: peptide 0.02 mM : test chemical 1 mM (1:50); for Reactivity Class: lysine
# Experimental: as §1
# [6] = tested on: IL-8; assay: IL-8 ELISA on THP-1 cell supernatants; type: cell-based, human; settings: preliminary ELISA, CV75
# Experimental: For cytokine profiling in THP-1, supernatants from wells were collected and then used for cytokine analysis by a Chemokine immunosorbent assay Bio-legend ELISA Max kit. The levels of available IL-8 protein from THP-1 cell supernatants was estimated using this kit which are regulated upon activation of THP-1 model. Surface receptor expression of human CD-86, CD-54, MHC-I and IL-T3 were analyzed by flow cytometry using standard BD FACS analyzer with PE and FITC fluorescent labeled antibodies from Biolegend and e Bioscience.
# In order to understand the effect of modified PPD hairdyes on THP-1 immune sensitization, a certain degree of Cytotoxicity at CV75% viable where 25% cell death is required before evaluation of supernatants in THP-1 models for expression of cytokine IL-8 and receptor expression of CD86, CD54, MHC-I and IL-T3 surface receptors upon treatment with standard PPD and modified hair dye compounds. Most allergens show a specific dose-dependent alteration of CD86 and/or CD54 expression or secretion of cytokine profiles. But depending on chemical, the alteration pattern may vary.
Structure (SMILES),IC50 [1],Sensitizing potential predicted from mean peptide depletion [2],% Parent compound Penetrated (mean) ([3]; 1% W/V applied),% converted to metabolite (mean) ([3]; 1% W/V applied),"% of Cysteine depletion, Avg ([4]; 20 min)","% of Cysteine depletion, Rep 2 ([4]; 20 min)","% of Cysteine depletion, Rep 3 ([4]; 20 min)","% of Cysteine depletion, Rep 1 ([4]; 20 min)","% of Cysteine depletion, Avg ([4]; 24 h)","% of Cysteine depletion, Rep 2 ([4]; 24 h)","% of Cysteine depletion, Rep 3 ([4]; 24 h)","% of Cysteine depletion, Rep 1 ([4]; 24 h)","% of Lysine depletion, Avg ([5]; 20 min)","% of Lysine depletion, Rep 2 ([5]; 20 min)","% of Lysine depletion, Rep 3 ([5]; 20 min)","% of Lysine depletion, Rep 1 ([5]; 20 min)","% of Lysine depletion, Avg ([5]; 24 h)","% of Lysine depletion, Rep 2 ([5]; 24 h)","% of Lysine depletion, Rep 3 ([5]; 24 h)","% of Lysine depletion, Rep 1 ([5]; 24 h)",also measured
"CCCCCCNc1ccc(N)cc1OCCCCCC [PPD derivative 16, (N^1-hexyl)(2-hexyloxy)-1,4-diaminobenzene]",140 µM,moderate sensitizer,,,,,,,,,,,,,,,,,,,
"CCCCCCOc1cc(Nc2ccc(N)cc2)ccc1N [PPD derivative 5, 4-Amino-(3-hexyloxy)-4′-aminodiphenylamine]",14.3 µM,,0%,0.0118%,51.2%,52.9%,49.9%,50.9%,53.8%,53.8%,54.1%,53.5%,6.3%,5.92%,6.2%,6.76%,14.3%,15.2%,13.8%,13.8%,% Parent compound Recovery (mean) ([3]; 1% W/V applied): 98%; Skin permeation (in words) [3]: did not permeate the skin at all; Skin permeation (in words) ([3]; listed as PPD 5): impermeable; Reactivity Class ([5]; 20 min): No or Minimal; Reactivity Class ([5]; 24 h): Low
"CCCCCCOc1cc(N)ccc1N [PPD derivative 4, 2-hexyloxy-1,4-diaminobenzene]",34.8 µM,moderate sensitizer,0.000322%,0.0121%,32.8%,31.8%,33.8%,30.8%,40.8%,41%,41.5%,40%,1.1%,0.845%,1.41%,1.13%,13.4%,15%,13.9%,11.3%,"recovery at 8 h, 1 % w/v ([3]; 1% W/V applied): 94.3%; Penetration profile PPD vs derivatives (times less than PPD) ([3]; listed as PPD 4): 503.1; IC50 ([1]; Homo sapiens, HaCaT, 72 h): 34.8 µM; Reactivity Class ([4]; 20 min, listed as Derivative 4): Moderate; Reactivity Class ([4]; 20 min, listed as derivative 4): moderate; Reactivity Class ([4]; 24 h): Moderate; Reactivity Class ([5]; 20 min): No or Minimal; Reactivity Class ([5]; 24 h): Low"
"Cc1ccc(NCc2ccc(Nc3ccc(Nc4ccc(N)cc4)cc3)cc2)cc1 [PPD derivative 10, N^1-[4-(4-tolylaminomethyl)phenyl]-N^4-(4-aminophenyl)-1,4-benzenediamine]",,weak sensitizer,,,,,,,,,,,,,,,,,,,"IC50 ([1]; Homo sapiens, HaCaT, 72 h): 1.8 µM; Mean peptide depletion ([2]; mean of cysteine (1:10) and lysine (1:50), FIG. 12): 23.0%"
"O=[N+]([O-])c1ccc(Cl)c([N+](=O)[O-])c1 [DNCB, reference compound]",,,,,,,,,,,,,,,,,,,,,IL-8 expression [6]: increased expression
"CCCCC(CC)COc1cc(N)ccc1N (stereo not shown) [PPD derivative 3, 2-((2-ethylhexyl)oxy)benzene-1,4-diamine]",,moderate sensitizer,0.00045%,0.0123%,31.9%,32%,31.4%,32.4%,32.7%,31.7%,31.8%,34.8%,6.2%,5.63%,7.89%,5.07%,15.48%,19.7%,13.8%,12.8%,"recovery at 8 h, 1 % w/v ([3]; 1% W/V applied): 94.5%; Penetration profile PPD vs derivatives (times less than PPD) ([3]; listed as PPD 3): 360; IC50 ([1]; Homo sapiens, HaCaT, 72 h): 31 µM; Reactivity Class ([4]; 20 min, listed as Derivative 3): Moderate; Reactivity Class ([4]; 20 min, listed as derivative 3): moderate; Reactivity Class ([4]; 24 h): Moderate; Reactivity Class ([5]; 20 min): No or Minimal; Reactivity Class ([5]; 24 h): Low"
